Test results as given in US5070210A, “Novel ketenimines as intermediates for insecticides” (ICI Americas Inc., priority 1990, dated 1991).

Experiments:
Format in all cases: in vivo
[1] = test system: Tobacco Budworm [Heliothis virescens (Fabricius)] eggs; experiment: Tobacco budworm egg test; conditions: 2-day old eggs, percent in solution
Summary of the method: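 LC50 is given as percent compound in the dipping solution, fitted from dosage-mortality curves. Two-day-old eggs on paper towel were dipped in acetone solutions (top concentration 0.1%), kept at 78° F on rearing medium, and scored after control hatch and larval feeding.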

[2] = test system: Beet Armyworm (Spodoptera exigua); experiment: Beet armyworm insecticidal test; conditions: second-instar larvae, percent in solution; five days
Description: (§1) The compounds in Tables 1 and 2 above were tested for insecticidal activity using the following testing procedures. LC50 values, based on the results of these tests and calculated according to dosage-mortality curves, are expressed in Table 3.
Beet Armyworm (Spodoptera exigua):
Test compounds were diluted in a 50-50 acetone-water solution. Young leaves of sugar beets (Beta vulgaris) were immersed in the test solutions for 2-3 seconds and placed on a wire screen to dry. The dried leaves were placed in petri dishes containing a moistened filter paper and infested with five second-instar beet armyworm larvae. The dishes were placed in a high humidity chamber. Mortality of the larvae was recorded five days later. Test concentrations ranged from 0.1% downward. The LC-50 values are expressed below in Table 3 under the heading "BAW" in terms of percent of the test compound in solution.

[3] = test system: Maize weevil [Sitophilus Zeamais (Motschulsky)]; experiment: Maize weevil insecticidal test; conditions: adult weevils, percent in solution; 48 hours
Summary of the method: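 LC50, in percent of compound in solution, was derived from dosage-mortality curves after 48 h at about 25 °C. Ten adult weevils per container fed on four corn seeds briefly immersed in acetone:water (50:50) solutions of up to 0.01% and dried.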

[4] = test system: Cabbage Looper [Trichoplusia ni (Hubner)]; experiment: Cabbage looper insecticidal test; conditions: second-instar larvae, percent in solution; 3-5 days
Summary of the method: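 LC50, as percent test compound in solution, derived from dosage-mortality curves; concentrations started at 0.1% and went lower. Five second-instar larvae per dish fed on acetone-water-dipped, dried squash cotyledons in a humid chamber. Deaths recorded 3-5 days post-infestation.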

[5] = test system: Tobacco Budworm [Heliothis virescens (Fabricius)] larvae; experiment: Tobacco budworm contact test; conditions: second-instar larvae, percent in solution, 5 days
Summary of the method: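 Cotton cotyledons dipped 2–3 s in compound in 50-50 acetone-water, dried, then infested with 5 second-instar larvae and held 5 days at high humidity. Mortality scored; LC50 from dosage-mortality curves, expressed as percent compound in solution, concentrations from 0.1% downward.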

[6] = test system: Aster Leafhopper [Macrosteles fascifrens (Stal)]; experiment: Aster leafhopper insecticidal test; conditions: adults/nymphs, percent in solution; 48 hours
Summary of the method: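 LC50 values, given as percent of test compound in the dip solution, were derived from dosage-mortality curves over concentrations from 0.05% downward. Mortality was counted 48 hours after ten leafhopper adults/nymphs were enclosed on treated seedlings. The seedlings were oats, about 10 cm tall, briefly dipped in 50-50 acetone-water.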

[7] = test system: Housefly [Musca domestica]; experiment: Housefly insecticidal test; conditions: μg per 25 female flies; mortality after 48 hours
Summary of the method: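 LC50, as μg compound per 25 female flies, comes from dosage-mortality curves with doses from 100 μg downward. Residues were made by evaporating acetone plus 0.01% peanut oil in dishes, onto which 1-2-day-old females were caged; deaths were counted after 48 hours.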

[8] = test system: Rice water weevil [Lissorhoptrus oryzophilus (Kuschel)]; experiment: Rice water weevil insecticidal test; conditions: topical, μg per weevil; 48 hours
Description: as §1
Rice water weevil [Lissorhoptrus oryzophilus (Kuschel)]:
Test compounds were diluted in acetone. Droplets (1 μl) of test solutions were applied to the ventral abdomens of ten female adult weevils. The treated weevils were placed in containers with wet cotton balls and rice foliage. The containers were covered and kept at a temperature of about 25° C. Mortality was recorded after 48 hours. Test concentrations ranged from […] or 2.5 μg per weevil down to that at which 50% mortality occurred. The LC50 values are expressed below in Table 3 under the heading "RWW" in terms of μg of test compound per weevil.

SMILES	LC50, TBW, E (TBW-E) [1] [%]	LC50, BAW [2] [%]	LC50, MW [3] [%]	LC50, CL [4] [%]	LC50, TBW, C (TBW-C) [5] [%]	LC50, LH [6] [%]	LC50, HF [7] [µg]	LC50, RWW [8] [µg]
FC(F)(F)Oc1ccc(N=C(OCc2cccc(Oc3ccccc3)c2)C(Cl)Cl)cc1 [Compound 64]	0.03	0.0025	> 0.01	0.0025	0.1	> 0.05	11	
CC(C)C(=Nc1cc(F)cc(C(F)(F)F)c1)OCc1cccc(Oc2ccccc2)c1 [Compound 77]	0.03	0.004	> 0.01	0.0005	0.0004	0.0002	10	
Fc1ccc(N=C(OCc2cccc(Oc3ccccc3)c2)C2CC2)cc1Cl [Compound 113]	0.1			0.005			15	> 2.5
CC(C)C(=Nc1ccc(C(C)C)cc1)OCc1cccc(Oc2ccccc2)c1 [Compound 144]	0.05	> 0.01	> 0.01	0.002	0.006	0.0006	100	
CC(C)C(=Nc1ccc2c(c1)OCO2)OCc1cccc(Oc2ccc(F)cc2)c1 [Compound 176]	0.05	0.0035	0.009	0.0005	0.002	> 0.05	1.8	
CC(C)C(=Nc1ccc(F)c(Cl)c1)OCc1cc(Oc2ccc(F)cc2)ccc1F [Compound 230]	0.1		0.038	0.0004			36	> 2.5
CC(C)C(=Nc1ccc(F)c(Br)c1)OCc1cccc(Oc2ccccc2)c1 [Compound 254]	0.026			0.001			6	> 2.5
CC(C)C(=Nc1ccc(F)c(Cl)c1)OCc1cccc(Oc2ccc(F)cc2)c1F [Compound 262]	> 0.1		0.005	0.0004			26	> 2.5
CC(C)C(=Nc1cccc(C(F)(F)F)c1)OCc1ccc(F)c(Oc2ccc(F)cc2)c1 [Compound 268]	0.023	0.001	> 0.01	0.000025	0.0005	0.0005	4	
CC(C)C(=Nc1cccc(Cl)c1)OCc1cccc(Oc2ccc(Cl)cc2)c1 [Compound 270]	> 0.01	0.005	> 0.01	0.00025	> 0.0015	0.003	12	
CC(C)C(=Nc1cccc(I)c1)OCc1ccc(F)c(Oc2ccc(F)cc2)c1 [Compound 279]	0.016	0.0025	> 0.01	0.00008	0.007	0.0003	4	
CC(C)(F)C(=Nc1ccc(F)c(Cl)c1)OCc1ccc(F)c(Oc2ccc(F)cc2)c1 [Compound 310]	0.015			0.00006			4.5	> 2.5
CC(C)C(=Nc1ccc(C(F)(F)F)cc1)OCc1ccc(F)c(Oc2ccc(F)cc2)c1 [Compound 314]	0.012			0.00005			21	0.11
